Key:
[1] = tested on: rat primary cortical neurons; experiment: Neuroprotective activity, rat primary cortical neurons cultured in serum-containing or serum-free medium; format: cell-based
Description: Primary cortical neurons are prepared from 18-day-old embryos of Sprague-Dawley rats as described (Liu and Schubert J. Neurochem. 69, 2285-2293 (1997) and J. Neurochem. 71, 2322-2329 (1998)). Briefly, the cerebral cortex is dissected out under an anatomical microscope and is freed of meninges and blood vessels. The cortex is cut into small pieces and is then dissociated by trypsin digestion and passed through a pipette tip. Dissociated neurons are suspended in various media and plated on polylysine-coated 35 mm tissue culture dishes (1×10^6 cells/dish). Several different culture conditions were used. Invention compounds were added to cell culture dishes. Cell survival was measure 2-7 days after compound administration.
The following serum-containing medium was used: minimal essential medium (Sigma) containing 30 mM glucose, 2 mM glutamine, 1 mM pyruvate, penicillin (100 U/ml), streptomycin (100 μg/ml), and 10% fetal calf serum. At a plating density of 1×10^6 cells/dish, most neurons die after one week of culture in this medium. If plated at a density of 2×10^6 cells/dish, then most neurons survive. Glia proliferate in this medium regardless of the initial cell density. Therefore the cell density-dependent neuronal survival in this system is most likely dependent on the neurotrophic factors secreted by the neurons, not by the glia. The results are the same when glial proliferation is inhibited by cytosine arabinoside.
A serum-free medium containing DMEM/F-12 plus N2 supplements (Invitrogen). When plated at a density of 1×10^6 cells/dish, almost all neurons die within three days. The cell death mechanisms in this culture medium are most likely to be oxidative stress and trophic factor deficiency.
A number of compounds according to the present invention were synthesized (using standard synthetic techniques) to explore the structure-activity relationships. The structures of exemplary invention compounds tested are provided herein. The structure-activity relationships of various compounds according to the present invention with rat primary cortical neurons cultured in serum-containing or serum-free medium are set forth in Table 1.

[2] = Plasma concentration after a single oral dose in mice; format: in vivo, BALB/c mice; conditions: for Plasma 11-001 concentration: 400 mg/kg single oral dose
Description: The pharmacokinetic properties of compound 11-001 (see FIG. 14) after a single oral dose were studied in 10-week old female BALB/c mice. Compound 11-001 was emulsified in 2.5% carboxymethyl cellulose at a concentration of 20 mg/ml and administered by gavage at a dosage of 400 mg/kg body weight (administered volume was 20 ml/kg body weight). The mice were then sacrificed at various intervals after administration (0, 1 hr, 2 hr, 4 hr, and 6 hr). Plasma was obtained from blood (mixed with K3EDTA to prevent coagulation) by centrifugation at 4,300 g for 10 min, extracted twice with ethyl acetate/propanol (9:1, v/v). The extracts were centrifuged at 5,000 g for 10 min to form aqueous/organic layers. The organic layer containing compound 11-001 was centrifuged at 20,000 g for 10 min to sediment particles. The extraction recovery from plasma was approximately 90%. Thirty μl thereof were analyzed by HPLC equipped with a C18 reversed phase column and compound 11-001 was detected at 330 nm. The elution solvent system was 50% acetonitrile, 50% water and 1 g/L trifluoroacetic acid with a flow rate of 1 ml/min.

[3] = Brain content after a single oral dose in mice; format: in vivo, BALB/c mice; conditions: for Brain 11-001 content: 400 mg/kg single oral dose
Description: To study the distribution of compound 11-001 in brain at various time intervals (0, 1 hr, 2 hr, 4 hr, and 6 hr) after gavage (400 mg/kg), the mice were anesthetized with cloral hydrate and perfused through the heart with phosphate buffered saline (PBS) to remove blood in the brain. The mice were then decapitated, the brains removed, and quickly frozen and stored at −80° C. before further analysis. To measure the level of compound 11-001 in the brain, weighed brain pieces were homogenized by sonication in 3 volumes of PBS. The homogenates were then extracted and measured by HPLC as described above.

[4] = tested on: p38; experiment: p38 phosphorylation caused by glutamate in cells; format: cell-based; conditions: HT22 cells and primary cortical neurons
Text: (§1) A panel of 14 protein kinases was screened against compound 11-001. […] The phosphorylation of the other tested kinases was not altered.

[5] = tested on: HT22 cells; experiment: HT22 cell survival after glutamate in the CREB phosphorylation experiment; format: cell-based; conditions: 1 μM compound; all cells died in its absence
Description: CREB phosphorylation in response to oxidative stress was evaluated in the presence of invention compounds. Glutamate was added to HT22 cells in the presence or absence of compound 11-001 (at 1 μM). […] Furthermore, all of the HT22 cells died in the absence of compound 11-001, and over 90% lived in the presence of compound 11-001.

[6] = tested on: JNK; experiment: JNK phosphorylation caused by glutamate in cells; format: cell-based; conditions: HT22 cells and primary cortical neurons
Text: as §1

[7] = molecular target: JNK-3 (Homo sapiens, UniProt P53779); experiment: Protein kinase panel screen: JNK-3; format: biochemical
JNK-3, sequence (P53779 whole entry, species assumed): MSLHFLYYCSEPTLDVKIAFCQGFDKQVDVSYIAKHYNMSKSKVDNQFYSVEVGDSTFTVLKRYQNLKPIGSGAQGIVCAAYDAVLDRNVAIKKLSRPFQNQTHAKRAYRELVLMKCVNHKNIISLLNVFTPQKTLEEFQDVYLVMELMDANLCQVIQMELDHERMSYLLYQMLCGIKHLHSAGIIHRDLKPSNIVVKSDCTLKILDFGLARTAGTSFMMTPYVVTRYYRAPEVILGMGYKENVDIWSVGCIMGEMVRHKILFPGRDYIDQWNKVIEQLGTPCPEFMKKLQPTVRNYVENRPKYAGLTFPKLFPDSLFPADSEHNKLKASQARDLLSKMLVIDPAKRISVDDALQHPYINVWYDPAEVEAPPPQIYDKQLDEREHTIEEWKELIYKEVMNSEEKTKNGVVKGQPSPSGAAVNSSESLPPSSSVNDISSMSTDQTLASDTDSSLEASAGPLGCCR
Text: as §1

[8] = molecular target: JNK-2 (Homo sapiens, UniProt P45984); experiment: Protein kinase panel screen: JNK-2; format: biochemical
JNK-2, sequence (P45984 whole entry, species assumed): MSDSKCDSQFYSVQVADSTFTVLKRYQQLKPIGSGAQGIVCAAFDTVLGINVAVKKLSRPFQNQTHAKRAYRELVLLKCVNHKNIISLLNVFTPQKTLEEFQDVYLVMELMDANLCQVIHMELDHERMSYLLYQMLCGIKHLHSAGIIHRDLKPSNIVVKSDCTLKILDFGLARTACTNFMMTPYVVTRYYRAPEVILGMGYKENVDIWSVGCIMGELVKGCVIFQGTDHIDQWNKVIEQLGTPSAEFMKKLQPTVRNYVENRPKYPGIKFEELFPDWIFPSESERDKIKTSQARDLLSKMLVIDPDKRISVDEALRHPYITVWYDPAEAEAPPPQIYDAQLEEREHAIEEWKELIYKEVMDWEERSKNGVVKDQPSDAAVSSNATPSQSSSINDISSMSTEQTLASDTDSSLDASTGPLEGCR
Text: as §1

[9] = molecular target: JNK-1 (Homo sapiens, UniProt P45983); experiment: Protein kinase panel screen: JNK-1; format: biochemical
JNK-1, sequence (P45983 whole entry, species assumed): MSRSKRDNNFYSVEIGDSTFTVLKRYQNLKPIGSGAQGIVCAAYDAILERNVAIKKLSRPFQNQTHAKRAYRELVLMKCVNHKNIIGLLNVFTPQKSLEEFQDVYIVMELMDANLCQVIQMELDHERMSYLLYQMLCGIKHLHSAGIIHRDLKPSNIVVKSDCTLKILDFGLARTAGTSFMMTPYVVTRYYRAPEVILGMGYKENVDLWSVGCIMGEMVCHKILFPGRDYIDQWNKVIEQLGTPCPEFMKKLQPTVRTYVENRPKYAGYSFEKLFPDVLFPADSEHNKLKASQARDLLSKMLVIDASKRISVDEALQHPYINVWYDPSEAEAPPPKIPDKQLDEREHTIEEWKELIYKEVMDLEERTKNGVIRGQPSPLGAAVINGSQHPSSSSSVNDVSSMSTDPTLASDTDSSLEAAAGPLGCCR
Text: as §1

[10] = tested on: HT22 cells and primary cortical neurons; experiment: Cell death caused by glutamate in HT22 cells and primary cortical neurons; format: cell-based

SMILES: COc1ccc(/C=C/c2cc(/C=C/c3ccc(OC)c(OC)c3)n(-c3ccccc3)n2)cc1OC [Compound 22-026]
- Neuroprotective activity at 1 μM [1]: 0

SMILES: COc1ccc(/C=C/c2cc(/C=C/c3ccc(OC)cc3)n(-c3ccccc3)n2)cc1 [Compound 22-022]
- Neuroprotective activity at 1 μM [1]: 0

SMILES: COc1cc(/C=C/c2cc(/C=C/c3ccc(O)c(OC)c3)n(-c3ccccc3)n2)ccc1O [Compound 11-001]
- Plasma 11-001 concentration ([2]; 0 hr after gavage): 0 µg/mL
- Time of maximum plasma concentration ([2]; 400 mg/kg by gavage): around 2 hr
- Plasma 11-001 concentration ([2]; 1 hr after gavage): 1.84 µg/mL
- Plasma 11-001 concentration ([2]; 2 hr after gavage): 2.30 µg/mL
- Plasma 11-001 concentration ([2]; 4 hr after gavage): 1.25 µg/mL
- Plasma 11-001 concentration ([2]; 6 hr after gavage): 0.67 µg/mL
- Brain 11-001 content ([3]; 0 hr after gavage): 0 μg/g brain
- Time of maximum brain concentration ([3]; 400 mg/kg by gavage): 1 h
- Oral absorption and passage of the blood-brain barrier ([3]; 400 mg/kg by gavage, mice): can be orally absorbed and traverse the blood-brain barrier
- Brain 11-001 content ([3]; 1 hr after gavage): 2.62 μg/g brain
- Brain 11-001 content ([3]; 2 hr after gavage): 1.28 μg/g brain
- Brain 11-001 content ([3]; 4 hr after gavage): 0.89 μg/g brain
- Brain 11-001 content ([3]; 6 hr after gavage): 0.95 μg/g brain
- Block of p38 phosphorylation caused by glutamate [4]: about 30%
- HT22 cells that lived after glutamate [5]: over 90%
- Block of JNK phosphorylation caused by glutamate [6]: about 30%
- Inhibition of kinase in panel of 14 protein kinases [7]: partially inhibited
- Inhibition of kinase in panel of 14 protein kinases [8]: None of the other enzymes that were assayed, including JNK-1 or JNK-2, were affected
- Inhibition of kinase in panel of 14 protein kinases [9]: None of the other enzymes that were assayed, including JNK-1 or JNK-2, were affected
- Effect on cell death [10]: inhibited cell death

SMILES: C(=C\c1cc(/C=C/c2ccccc2)n(-c2ccccc2)n1)/c1ccccc1 [Compound 22-020]
- Neuroprotective activity at 1 μM [1]: 0

SMILES: COc1cccc(/C=C/c2cc(/C=C/c3cccc(OC)c3)n(-c3ccccc3)n2)c1 [Compound 22-024]
- Neuroprotective activity at 1 μM [1]: 0

From US7531669B2, “Methods for treating neural disorders and conditions, and compounds useful therefor” (The Salk Institute for Biological Studies, priority 2003, dated 2009)
